US9475778B2, “Sulfate of 5-hydroxy-1H-imidazole-4-carboxamide” (FUJIFILM Corporation, priority 2013, dated 2016)

Tests used:
Assay type in all cases: physicochemical
[1] = Storage stability test (3) under conditions of 60° C. and relative humidity of 75% (mass change, color appearance); conditions: relative humidity 75%, 2 weeks; for Mass change ratio (%): glass bottle, {(A1−A0)/A0}×100
Procedure: Storage Stability Test (3) Under Conditions of 60° C. and Relative Humidity of 75%
As test substances, the crystals obtained in Example 2 and Comparative Example 2 were chosen.
Each test substance (about 0.3 g) was put into a glass bottle, and stored under the conditions of 60° C. and relative humidity of 75% for 2 weeks, and then mass was measured. Mass change ratio of each test substance was calculated according to the following equation. Mass change ratio(%)={(A1−A0)/A0}×100 A0: Mass (g) of test substance before test A1: Mass (g) of test substance after test
Change of color appearance of the test substances was also visually evaluated.

[2] = Storage for 2 weeks under conditions of 25° C. and relative humidity of 97%; conditions: relative humidity 97%
[3] = Storage stability test (2) under conditions of 60° C. and relative humidity of 75% (purity by HPLC); conditions: relative humidity 75%, 2 weeks
Procedure: The purities are represented in terms of HPLC area %. The HPLC measurement was performed by using Prominence (Shimadzu) under the following conditions.
Storage Stability Test (2) Under Conditions of 60° C. and Relative Humidity of 75%
As a test substance, the crystals obtained in Example 1 were chosen.
The test substance (about 0.3 g) was put into a glass bottle, and stored under the conditions of 60° C. and relative humidity of 75% for 2 weeks. After completion of the test, purity of the substance was measured by HPLC.

[4] = Storage stability test (1) under conditions of 60° C. and relative humidity of 75% (coloring); conditions: glass bottle, relative humidity 75%, 2 weeks, compared with crystals of Comparative Example 1
Procedure: Storage Stability Test (1) Under Conditions of 60° C. and Relative Humidity of 75%
As test substances, the crystals obtained in Examples 1 and 2 and Comparative Example 1 were chosen.
Each test substance (about 0.3 g) was put into a glass bottle, and stored under the conditions of 60° C. and relative humidity of 75% for 2 weeks.

Row | SMILES | Mass change ratio (%) [1] | appearance change after storage [2] | purity of the test substance after storage (HPLC) ([3]; glass bottle, HPLC area %) | coloring after storage [4] | purity after storage (in words) ([3]; evaluated in the same manner as Test Example 2) | Change of color appearance ([1]; visually evaluated)
1 | CS(=O)(=O)O.NC(=O)c1nc[nH]c1O [Comparative Example 2, Methanesulfonate of 5-hydroxy-1H-imidazole-4-carboxamide, reference compound] | +16.2% | deliquesced | – | – | – | –
2 | NC(=O)c1nc[nH]c1O.O=S(=O)(O)O [Example 1, sulfate of 5-hydroxy-1H-imidazole-4-carboxamide] | – | – | 99.97% | – | – | –
3 | NC(=O)c1nc[nH]c1O.O=S(=O)(O)O [Example 2, sulfate of 5-hydroxy-1H-imidazole-4-carboxamide] | −0.1% | did not show appearance change | – | coloring in an obviously lower degree | high purity even after the storage for 2 weeks | No change (white)
